{"source": "patent US8785692B2", "about": "“Substituted phenylamidines and the use thereof as fungicides” (priority 2007, dated 2014)", "key": {"Sphaerotheca fuliginea": {"test_system": "Sphaerotheca fuliginea", "assay": "Sphaerotheca test (cucumber) / protective", "type": "in vivo", "conditions": "Podosphaera fuliginea, 168 h, read-out: efficacy", "protocol": "Sphaerotheca Test (Cucumber)/Protective\nSolvent: 49 parts by weight of N,N-dimethylformamide\nEmulsifier: 1 part by weight of alkylaryl polyglycol ether\nTo produce a suitable preparation of active compound, 1 part by weight of active compound is mixed with the stated amounts of solvent and emulsifier, and the concentrate is diluted with water to the desired concentration.\nTo test for protective activity, young cucumber plants are sprayed with the active compound preparation at the stated application rate. 1 day after the treatment, the plants are inoculated with a spore suspension of Sphaerotheca fuliginea. The plants are then placed in a greenhouse at 70% relative atmospheric humidity and a temperature of 23° C.\nEvaluation is carried out 7 days after the inoculation. 0% means an efficacy which corresponds to that of the control, whereas an efficacy of 100% means that no infection is observed."}, "[1]": {"assay": "logP (neutral / acidic, pH 2.3)"}, "[2]": {"conditions": "cucumber, protective, 500 ppm active compound, evaluation 7 days after inoculation"}}, "note": "Like-named read-outs stand apart in the source and are kept apart here."}
{"smiles": "CCCO/N=C(\\C)c1cc(C)c(N=CN(C)CC)cc1C", "note": "[Compound 37, N′-{4-[(1E)-N-(n-propoxy)ethanimidoyl]-2,5-dimethylphenyl}-N-ethyl-N-methylimidoformamide]", "values": [{"measurement": "pest or weed control at 500 ppm", "setting": "Sphaerotheca fuliginea; [2]", "result": "≥ 70", "unit": "%"}, {"measurement": "logP", "setting": "[1]", "result": 4.43}, {"measurement": "logP", "setting": "[1]; pH 2.3", "result": 1.9}]}
{"smiles": "CCN(C)C=Nc1cc(C)c(/C=N/OCc2ccccc2)cc1C", "note": "[Compound 3, N′-(4-{(E)-[(benzyloxy)imino]methyl}-2,5-di-methylphenyl)-N-ethyl-N-methylimidoformamide]", "values": [{"measurement": "pest or weed control at 500 ppm", "setting": "Sphaerotheca fuliginea; [2]", "result": "≥ 70", "unit": "%"}, {"measurement": "logP", "setting": "[1]; pH 2.3", "result": 2.02}]}
{"smiles": "CCN(C)C=Nc1cc(C)c(/C(C)=N/OCc2c(Cl)cccc2Cl)cc1C", "note": "[Compound 29, N′-(4-{(1E)-N-[(2,6-dichlorobenzyl)oxy]ethanimidoyl}-2,5-dimethylphenyl)-N-ethyl-N-methylimidoformamide]", "values": [{"measurement": "pest or weed control at 500 ppm", "setting": "Sphaerotheca fuliginea; [2]", "result": "≥ 70", "unit": "%"}, {"measurement": "logP", "setting": "[1]", "result": 5.51}, {"measurement": "logP", "setting": "[1]; pH 2.3", "result": 3.75}]}
{"smiles": "CCN(C)C=Nc1cc(C)c(/C(C)=N/OCC(F)(F)F)cc1C", "note": "[Compound 17, N′-{2,5-dimethyl-4-[(1E)-N-(2,2,2-trifluoroethoxy)ethanimidoyl]phenyl}-N-ethyl-N-methylimidoformamide]", "values": [{"measurement": "pest or weed control at 500 ppm", "setting": "Sphaerotheca fuliginea; [2]", "result": "≥ 70", "unit": "%"}, {"measurement": "logP", "setting": "[1]", "result": 4.24}, {"measurement": "logP", "setting": "[1]; pH 2.3", "result": 1.88}]}
{"smiles": "CCN(C)C=Nc1cc(C)c(/C(C)=N/OC(C2CC2)C2CC2)cc1C", "note": "[Compound 20, N′-{4-[(1E)-N-(dicyclopropylmethoxy)ethanimidoyl]-2,5-dimethylphenyl}-N-ethyl-N-methylimidoformamide]", "values": [{"measurement": "pest or weed control at 500 ppm", "setting": "Sphaerotheca fuliginea; [2]", "result": "≥ 70", "unit": "%"}, {"measurement": "logP", "setting": "[1]", "result": 5.33}, {"measurement": "logP", "setting": "[1]; pH 2.3", "result": 2.38}]}
{"smiles": "CCN(C)C=Nc1cc(C)c(/C(C)=N/OCC=C(C)C)cc1C", "note": "[Compound 33, N′-(2,5-dimethyl-4-{(1E)-N-[(3-methylbut-2-en-1-yl)oxy]ethanimidoyl}phenyl)-N-ethyl-N-methylimidoformamide]", "values": [{"measurement": "pest or weed control at 500 ppm", "setting": "Sphaerotheca fuliginea", "result": "≥ 70", "unit": "%"}, {"measurement": "logP", "setting": "[1]", "result": 4.86}, {"measurement": "logP", "setting": "[1]; pH 2.3", "result": 2.24}]}
{"smiles": "CCN(C)C=Nc1cc(C)c(/C(C)=N/OCc2ccccc2)cc1C", "note": "[Compound 31, N′-(4-{(1E)-N—[benzyloxy]-ethanimidoyl}-2,5-dimethylphenyl)-N-ethyl-N-methylimidoformamide]", "values": [{"measurement": "pest or weed control at 500 ppm", "setting": "Sphaerotheca fuliginea; [2]", "result": "≥ 70", "unit": "%"}, {"measurement": "logP", "setting": "[1]", "result": 4.65}, {"measurement": "logP", "setting": "[1]; pH 2.3", "result": 2.07}]}
{"smiles": "CCN(C)C=Nc1cc(C)c(/C(C)=N/OCc2nc(-c3ccccc3)cs2)cc1C", "note": "[Compound 21, N′-(2,5-dimethyl-4-{(1E)-N-[(4-phenyl-1,3-thiazol-2-yl)meth-oxy]ethanimidoyl}phenyl)-N-ethyl-N-methylimidoformamide]", "values": [{"measurement": "pest or weed control at 500 ppm", "setting": "Sphaerotheca fuliginea; [2]", "result": "≥ 70", "unit": "%"}, {"measurement": "logP", "setting": "[1]", "result": 5.1}, {"measurement": "logP", "setting": "[1]; pH 2.3", "result": 2.3}]}
{"smiles": "CCN(C)C=Nc1cc(C)c(/C(C)=N/OCc2c(C)noc2C)cc1C", "note": "[Compound 36, N′-(4-{(1E)-N-[(3,5-dimethylisoxazol-4-yl)methoxy]ethanimidoyl}-2,5-dimethylphenyl)-N-ethyl-N-methylimidoformamide]", "values": [{"measurement": "pest or weed control at 500 ppm", "setting": "Sphaerotheca fuliginea; [2]", "result": "≥ 70", "unit": "%"}, {"measurement": "logP", "setting": "[1]", "result": 3.63}, {"measurement": "logP", "setting": "[1]; pH 2.3", "result": 1.68}]}
{"smiles": "CCN(C)C=Nc1cc(C)c(/C(C)=N/OC2CCCC2)cc1C", "note": "[Compound 14, N′-{4-[(1E)-N-(cyclopentyloxy)ethanimidoyl]-2,5-dimethylphenyl}-N-ethyl-N-methylimidoformamide]", "values": [{"measurement": "pest or weed control at 500 ppm", "setting": "Sphaerotheca fuliginea; [2]", "result": "≥ 70", "unit": "%"}, {"measurement": "logP", "setting": "[1]", "result": 5.24}, {"measurement": "logP", "setting": "[1]; pH 2.3", "result": 2.2}]}
{"smiles": "C#CC(C)O/N=C(\\C)c1cc(C)c(N=CN(C)CC)cc1C", "note": "(centres unmarked) [Compound 15, N′-(2,5-dimethyl-4-{(1E)-N-[(1-methylprop-2-yn-1-yl)oxy]ethanimidoyl}phenyl)-N-ethyl-N-methylimidoformamide]", "values": [{"measurement": "pest or weed control at 500 ppm", "setting": "Sphaerotheca fuliginea; [2]", "result": "≥ 70", "unit": "%"}, {"measurement": "logP", "setting": "[1]", "result": 4}, {"measurement": "logP", "setting": "[1]; pH 2.3", "result": 1.8}]}
{"smiles": "CCN(C)C=Nc1cc(C)c(/C(C)=N/OCc2ccc(Cl)nc2)cc1C", "note": "[Compound 32, N′-(4-{(1E)-N-[(6-chloropyridin-3-yl)methoxy]ethanimidoyl}-2,5-dimethylphenyl)-N-ethyl-N-methylimidoformamide]", "values": [{"measurement": "pest or weed control at 500 ppm", "setting": "Sphaerotheca fuliginea; [2]", "result": "≥ 70", "unit": "%"}, {"measurement": "logP", "setting": "[1]", "result": 3.95}, {"measurement": "logP", "setting": "[1]; pH 2.3", "result": 1.67}]}
{"smiles": "CCN(C)C=Nc1cc(C)c(/C(C)=N/OCCOc2cccc(C(F)(F)F)c2)cc1C", "note": "[Compound 34, N′-{2,5-dimethyl-4-[(1E)-N-{2-[3-(trifluoromethyl)phenoxy]ethoxy}ethan-imidoyl]phenyl}-N-ethyl-N-methylimidoformamide]", "values": [{"measurement": "pest or weed control at 500 ppm", "setting": "Sphaerotheca fuliginea; [2]", "result": "≥ 70", "unit": "%"}, {"measurement": "logP", "setting": "[1]", "result": 5.28}, {"measurement": "logP", "setting": "[1]; pH 2.3", "result": 2.59}]}
